Measurements: patent US10501456B2, “Therapeutic agents for the treatment of HBV infection” (Newave Pharmaceutical Inc., priority 2016, dated 2019)
Where a name gives a salt, the structure may show the parent alone.

Legend:
[1] = system: extracellular HBV DNA; test: HBV DNA assay (real-time qPCR/TaqMan, HepG2.2.15 cells); type: cell-based; settings: for EC50: Hepatitis B virus, 144 h, six days, supernatant HBV DNA copy number, read-out: EC50 (reduction in HBV DNA levels)
Procedure: The assay employs real-time qPCR (TaqMan) to directly measure extracellular HBV DNA copy number. HepG2.2.15 cells were plated in 96-well microtiter plates. Only the interior wells were utilized to reduce “edge effects” observed during cell culture, the exterior wells were filled with complete medium to help minimize sample evaporation. On the following day, the HepG2.2.15 cells were washed and the medium was replaced with complete medium containing various concentrations of a test compound in triplicate. 3TC was used as the positive control, while media alone was added to cells as a negative control (virus control, VC). Three days later, the culture medium was replaced with fresh medium containing the appropriately diluted drug. Six days following the initial administration of the test compound, the cell culture supernatant was collected, treated with pronase and then used in a real-time qPCR/TaqMan assay to determine HBV DNA copy numbers. TDF (tenofovir disoproxil fumarate) is used as a positive control reference. Antiviral activity was calculated from the reduction in HBV DNA levels (IC50).

[2] = Compound cytotoxicity assay (CellTiter-Glo); type: cell-based; settings: human; HepG2.2.15 cells, 4 day incubation, top conc. 150 μM
Procedure: (§1) Compounds are diluted with DMSO in 3-fold, 11-point scheme: top conc. of test compound is 30 mM. Add 0.25 μL titrated compounds with Echo 550 to 384-well cytotoxicity assay plates. Add 50 μl HepG2.2.15 cells to each well (4,000 cells per well). The final top conc. is 150 μM after cell addition. For solvent control well (0% effect, ZPE), 0.25 μL DMSO is added (final DMSO conc. is 0.5%). Incubate for 4 days in 37⊏ C, 5% CO2 incubator. After
(§2) 4 day incubation compound cytotoxicity is measured by Promega CellTiter-Glo reagents, briefly: • Equilibrate the Celltiter-Glo reagent to room temperature • Equilibrate the cytotoxicity plates to RT for 20 minutes. • Add 50 μl of CellTiter-Glo Reagent to each well. • Shake 2 minutes on a shaker. • Incubate at room temperature in dark for 10 minutes. • Read plate on Envision Plate reader (0.1 sec integration time/well)
(§3) Such assays, carried out with a range of doses of test compounds, allow the determination of the cellular IC50 of the compounds of the present invention.

[3] = system: HepG2.2.15 cells; test: Compound cytotoxicity assay (CellTiter-Glo); type: cell-based; settings: compared with Compound 203 in WO2015113990
Procedure: as §1, §2, §3

[4] = Rat PK study; type: in vivo, female Sprague-Dawley rats; settings: for AUC(0-t) / Cmax / bioavailability / half-life: female, Sprague-Dawley, plasma, oral dosing; for half-life: read-out: t½ (converted)
Procedure: The pharmacokinetics of compounds were evaluated in female Sprague-Dawley rats via Intravenous and Oral Administration. The iv dose was administered as a slow bolus in the Jugular vein, and oral doses were administered by gavage. The fomulaltion for IV dosing is 20% DMSO and 60% PEG 400 in water, and the PO formulation (suspension) is 1% MC, 0.4% Kolliphor EL in water. The PK time point for the IV arm is 5, 15, 30 min, 1, 2, 4, 6, 8, 12, 24 hours post dose, and for PO arm is 15, 30 min, 1, 2, 4, 6, 8, 12, 24 hours post dose. Approximately 0.2 mL blood will be collected at each time point. Blood of each sample will be transferred into plastic micro centrifuge tubes containing EDTA-K2 and collect plasma within 15 min by centrifugation at 4000 g for 5 minutes in a 4° C. centrifuge. Plasma samples will be stored in polypropylene tubes. The samples will be stored in a freezer at −75±15° C. prior to analysis. Concentrations of compounds in the plasma samples will be analyzed using a LC-MS/MS method. WinNonlin (Phoenix™, version 6.1) or other similar software will be used for pharmacokinetic calculations. The following pharmacokinetic parameters will be calculated, whenever possible from the plasma concentration versus time data: IV administration: C0, CL, Vd, T1/2, AUCinf, AUClast, MRT, Number of Points for Regression; PO administration: Cmax, Tmax, T1/2, AUCinf, AUClast, F %, Number of Points for Regression. The pharmacokinetic data will be described using descriptive statistics such as mean, standard deviation. Additional pharmacokinetic or statistical analysis may be performed at the discretion of the contributing scientist, and will be documented in the data summary

[5] = target: hERG (Homo sapiens, UniProt Q12809); test: hERG assay (automated patch-clamp); type: biochemical; settings: for IC10 (10% inhibitory concentration, hERG tail current): automated patch-clamp
From the text: The human ether-a-go-go related gene (hERG) encodes the inward rectifying voltage gated potassium channel in the heart (IKr) which is involved in cardiac repolarization. Inhibition of the hERG current causes QT interval prolongation resulting in potentially fatal ventricular tachyarrhythmia called Torsade de Pointes. A number of drugs have been withdrawn from late stage clinical trials due to these cardiotoxic effects, therefore it is important to identify inhibitors early in drug discovery.
The degree of inhibition (%) was obtained by measuring the tail current amplitude, which is induced by a one second test pulse to −40 mV after a two second pulse to +20 mV, before and after drug incubation (the difference current was normalized to control and multiplied by 100 to obtain the percent of inhibition). Concentration (log) response curves were fitted to a logistic equation (three parameters assuming complete block of the current at very high test compound concentrations) to generate estimates of the 10% inhibitory concentration (IC10). The concentration-response relationship of each compound was constructed from the percentage reductions of current amplitude by sequential concentrations.

Chain of hERG (Q12809 whole entry): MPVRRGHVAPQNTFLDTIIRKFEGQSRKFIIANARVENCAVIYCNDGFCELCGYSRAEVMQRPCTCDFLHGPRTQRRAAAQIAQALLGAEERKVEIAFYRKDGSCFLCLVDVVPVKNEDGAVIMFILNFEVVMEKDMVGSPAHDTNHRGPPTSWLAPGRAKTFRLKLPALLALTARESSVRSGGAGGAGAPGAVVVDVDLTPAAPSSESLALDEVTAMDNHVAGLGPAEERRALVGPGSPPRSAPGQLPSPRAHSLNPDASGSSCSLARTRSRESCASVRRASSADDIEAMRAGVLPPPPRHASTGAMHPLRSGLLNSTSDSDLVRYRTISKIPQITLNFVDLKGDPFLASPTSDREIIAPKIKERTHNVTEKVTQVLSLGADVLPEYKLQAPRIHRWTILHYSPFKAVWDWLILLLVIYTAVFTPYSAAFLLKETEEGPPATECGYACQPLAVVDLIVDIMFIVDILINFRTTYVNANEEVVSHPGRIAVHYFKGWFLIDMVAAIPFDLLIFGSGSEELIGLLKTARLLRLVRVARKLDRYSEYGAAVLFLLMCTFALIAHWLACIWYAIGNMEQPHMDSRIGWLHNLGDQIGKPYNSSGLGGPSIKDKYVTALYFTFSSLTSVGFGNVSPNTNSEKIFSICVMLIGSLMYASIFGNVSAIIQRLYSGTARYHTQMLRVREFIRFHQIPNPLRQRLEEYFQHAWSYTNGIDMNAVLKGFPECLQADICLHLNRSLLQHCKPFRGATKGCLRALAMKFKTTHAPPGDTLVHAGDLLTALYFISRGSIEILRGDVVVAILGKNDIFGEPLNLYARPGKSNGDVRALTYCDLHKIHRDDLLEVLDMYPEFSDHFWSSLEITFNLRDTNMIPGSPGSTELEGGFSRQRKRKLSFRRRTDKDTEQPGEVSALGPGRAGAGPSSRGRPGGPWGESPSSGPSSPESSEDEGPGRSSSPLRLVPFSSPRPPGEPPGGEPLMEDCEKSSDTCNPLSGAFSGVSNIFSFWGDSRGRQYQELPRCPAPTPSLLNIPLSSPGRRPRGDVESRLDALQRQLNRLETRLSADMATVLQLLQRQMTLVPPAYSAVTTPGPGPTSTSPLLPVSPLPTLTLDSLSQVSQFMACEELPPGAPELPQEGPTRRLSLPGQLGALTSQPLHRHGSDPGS

Row | AUC(0-t) ([4]; 10 mg/kg) [ng·h/mL] | bioavailability ([4]; 10 mg/kg) [%] | SMILES | EC50 [1] [µM] | IC50 at 4 days [2] [µM] | AUC(0-t) ([4]; 20 mg/kg) [ng·h/mL] | Cmax ([4]; 20 mg/kg) [ng/mL] | bioavailability ([4]; 20 mg/kg) [%] | half-life ([4]; 20 mg/kg) [h] | IC10 (10% inhibitory concentration, hERG tail current) [5] [µM] | also measured
1 | – | – | CC(C)OC(=O)OCOP(=O)(CO[C@H](C)Cn1cnc2c(N)ncnc21)OCOC(=O)OC(C)C [Tenofovir Disoproxil Fumarate, tenofovir disoproxil fumarate, reference compound] | 0.0293 | – | – | – | – | – | – | –
2 | – | – | COCCCOc1cc2c(cc1Cl)-c1c(F)c(=O)c(C(=O)O)cn1[C@H](C(C)(C)C)C2 (single isomer, unassigned) [Example 2A, (+)-6-(tert-butyl)-10-chloro-1-fluoro-9-(3-methoxypropoxy)-2-oxo-6,7-dihydro-2H-pyrido[2,1-a]isoquinoline-3-carboxylic acid] | < 0.001 | > 150 | 39600 | 7550 | 58.6 | 4.47 | 10 | cytotoxicity (in words) [3]: less cytotoxicity; oral PK profile (in words) ([4]; oral dosing of 20 mg/kg, compared with Compound 203 in WO2015113990): better oral PK profile; anti-HBV potency (in words) ([1]; HBV DNA): highly potent; cardiac toxicity (in words) ([5]; hERG, compared with Compound 203 in WO2015113990): less cardiac toxicity
3 | – | – | COCCCOc1cc2c(cc1Cl)-c1cc(=O)c(C(=O)O)cn1[C@H](C(C)(C)C)C2 [Compound 203 in WO2015113990, reference compound] | < 0.001 | 120 | 16700 | 2470 | 40 | 3.73 | 1 | –
4 | 5840 | 24.1 | COCCCOc1cc2c(cc1OC)-c1c(F)c(=O)c(C(=O)O)cn1[C@H](C(C)(C)C)C2 [Example 13] | – | – | – | – | – | – | – | –
5 | 9050 | 61.1 | [2H]C([2H])([2H])Oc1cc2c(cc1OCCCOC)C[C@@H](C(C)(C)C)n1cc(C(=O)O)c(=O)c(F)c1-2 [Example 14, (S)-6-(tert-butyl)-1-fluoro-10-(methoxy-d3)-9-(3-methoxypropoxy)-2-oxo-6,7-dihydro-2H-pyrido[2,1-a]isoquinoline-3-carboxylic acid] | – | – | – | – | – | – | – | oral PK profile (in words) ([4]; oral dosing of 10 mg/kg, compared with Example 13): much better oral PK profile
